Data published in publication PMC10221314 (Pharmaceuticals, 2023).
Values joined by “and” are separate entries in the source; they are usually repeats but may differ in a detail not shown here. Identical values can stand only once.

Biological target: T1, FXR (Homo sapiens, UniProt Q96RI1)
T1 construct: a fusion plasmid of Gal4 DBD-NR-LBD, which included PPARα, PPARβ, PPARγ, RXRα, RXRβ, RXRγ, LXRα, LXRβ, GPBAR, PXR, and FXR; expressed in transfected cells; host or cells: HEK-293T
T1 sequence (Q96RI1 262-486 limits assumed): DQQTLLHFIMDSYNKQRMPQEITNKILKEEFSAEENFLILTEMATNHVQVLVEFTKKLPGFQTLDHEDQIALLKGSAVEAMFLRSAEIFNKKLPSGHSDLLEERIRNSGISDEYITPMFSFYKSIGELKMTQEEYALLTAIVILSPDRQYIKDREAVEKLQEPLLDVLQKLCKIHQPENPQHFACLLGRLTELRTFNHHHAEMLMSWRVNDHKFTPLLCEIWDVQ
Experiment: Yeast one-hybrid assay of FXR antagonistic activity in HEK-293T cells
Type: cell-based
Details: HEK-293T cells; CDCA (50 μM) as agonist; mean ± SE of three independent tests
Experimental: Cell counting: HEK-293T cells in logarithmic growth phase were digested with 0.25% trypsin, collected, and centrifuged. The trypsin-containing medium was discarded, and 2 mL of fresh phenol red-free DMEM medium containing 5% fetal bovine serum was added. The cells were then mixed with the medium to prepare a cell suspension and counted on a cell counting plate.
Cell plating: A determined number of cells were taken from the cell suspension, diluted with phenol red-free DMEM medium containing 5% fetal bovine serum, and plated at a concentration of 10,000 cells per well (100 µL medium) in a 96-well plate. The plate was then incubated at 37 °C and 5% CO2 for 24 h.
Cell transfection: Fresh phenol red-free DMEM medium was taken in a sterile environment, and the previously extracted pFXR-Binding plasmid and PG4.35[luc2P-9XGA4UAS-Hygro] plasmid were added. The mixture was stirred and allowed to stand at 23 °C for 3 min. Then, a 3% amount of transfection reagent was added to the mixture, and it was allowed to stand at 23 °C for 15 min. The mixture was then added to the 96-well plate at a volume of 10 µL per well and incubated at 37 °C in a 5% CO2 environment for 24 h.
The OA derivatives were prepared as 10 mM DMSO stock solutions and further diluted in a concentration gradient, with 10 µL added to each well. The final concentrations of the derivatives ranged from 10 µM to 0.03 µM, with 7 concentration gradients using […] dilution. The test was set with 3 duplicated wells.
Antagonism activity test: The firefly-Renilla Dual Fluorescence Assay Kit (Promega, #E2940, Madison, WI, USA) was used to measure the antagonism activity of the OA derivatives. Firstly, the firefly fluorescence reagent was added to the 96-well plate at a volume of 70 µL per well and shaken in darkness for 15 min. Then, the fluorescence intensity was measured at a wavelength of 645 ± 30 nm in a microplate reader (BioTek, Winooski, VT, USA). Next, the volume of Renilla reagent was added to the 96-well plate at a volume of 70 µL per well and shaken in darkness for 15 min. The fluorescence intensity was then measured at a wavelength of 525 ± 20 nm.
Data processing: The fluorescence data of firefly were divided by the fluorescence data of Renilla to remove errors, and the antagonism efficiency was calculated using the following formula: antagonism efficiency (%) = [1 − (FCompds. − FDMSO)/(FCDCA − FDMSO)] × 100%. In the formula, F represents fluorescence intensity. The antagonistic efficiency data were obtained as a concentration–effect curve using Graphpad Prism 8.0 software, and the corresponding IC50 value was calculated.

Row | Structure (SMILES) | IC50
1 | CC(C)COC(=O)NC(CCC(=O)OC1CC2C3(C)CCC(O)C(C)(C)C3CCC2(C)C2(C)CCC3(C(=O)O)CCC(C)(C)CC3C12)C(=O)OC(C)(C)C [Compound 19e, 3β-hydroxy-12β-(4′-((isobutoxycarbonyl)amide)-5′-(tert-butoxy)-L-glutamate)oxy-13H-olean-28-oic acid] | 920 ± 140 nM
2 | CC1(C)CC[C@]2(C(=O)O)CC[C@]3(C)[C@H]([C@H](OC(=O)C[C@@H](NC(=O)OC(C)(C)C)C(=O)OC(C)(C)C)CC4[C@@]5(C)CC[C@H](O)C(C)(C)C5CC[C@]43C)[C@@H]2C1 (stereo partly drawn) [Compound 9b, 3-hydroxy-12β-(3′-((tert-butoxycarbonyl)amino)-4′-(tert-butoxy)-D-aspartate)oxy-13H-olean-28-oic acid] | 2390 ± 350 nM
3 | CC1(C)CC[C@]2(C(=O)O)CC[C@]3(C)[C@H]([C@H](OC(=O)C[C@@H](CC(=O)OC(C)(C)C)NC(=O)OC(C)(C)C)CC4[C@@]5(C)CC[C@H](O)C(C)(C)C5CC[C@]43C)[C@@H]2C1 (stereo partly drawn) [Compound 10c, 3-hydroxy-12β-((S)-3′-((tert-butoxycarbonyl)amino)-5′-(tert-butoxy)-5-oxopentanoyl)oxy-13H-olean-28-oic acid] | 1340 ± 230 nM
4 | CCOC(=O)C(CCC(=O)OC1CC2C3(C)CCC(O)C(C)(C)C3CCC2(C)C2(C)CCC3(C(=O)O)CCC(C)(C)CC3C12)NC(=O)OC(C)(C)C [Compound 20b, 3β-hydroxy-12β-(4′-((tert-butoxycarbonyl)amide)-5′-ethoxy-L-glutamate)oxy-13H-olean-28-oic acid] | 1020 ± 210 nM
5 | CC1(C)CC[C@]2(C(=O)O)CC[C@]3(C)[C@H]([C@H](OC(=O)C[C@H](NC(=O)OC(C)(C)C)C(=O)OC(C)(C)C)CC4[C@@]5(C)CC[C@H](O)C(C)(C)C5CC[C@]43C)[C@@H]2C1 (stereo partly drawn) [Compound 9a, 3-hydroxy-12β-(3′-((tert-butoxycarbonyl)amino)-4′-(tert-butoxy)-L-aspartate)oxy-13H-olean-28-oic acid] | 950 ± 140 nM
6 | COC(=O)C(CCC(=O)OC1CC2C3(C)CCC(O)C(C)(C)C3CCC2(C)C2(C)CCC3(C(=O)O)CCC(C)(C)CC3C12)NC(=O)OC(C)(C)C [Compound 20a, 3β-hydroxy-12β-(4′-((tert-butoxycarbonyl)amide)-5′-methoxy-L-glutamate)oxy-13H-olean-28-oic acid] | 1100 ± 190 nM
7 | CC1(C)CC[C@]2(C(=O)O)CC[C@]3(C)[C@H]([C@H](OC(=O)CC[C@H](N)C(=O)O)CC4[C@@]5(C)CC[C@H](O)C(C)(C)C5CC[C@]43C)[C@@H]2C1 (stereo partly drawn) [Compound 11c, 3-hydroxy-12β-((S)-4′-amino-4′-carboxybutanoyl)oxy-13H-olean-28-oic acid] | 21300 ± 2600 nM
8 | CC(C)OC(=O)NC(CCC(=O)OC1CC2C3(C)CCC(O)C(C)(C)C3CCC2(C)C2(C)CCC3(C(=O)O)CCC(C)(C)CC3C12)C(=O)OC(C)(C)C [Compound 19d, 3β-hydroxy-12β-(4′-((isopropoxycarbonyl)amide)-5′-(tert-butoxy)-L-glutamate)oxy-13H-olean-28-oic acid] | 400 to 500 nM and 470 nM
9 | CC1(C)CCC2(C(=O)O)CCC3(C)C(C(OC(=O)CCC(NC(=O)OC4CCCC4)C(=O)OC(C)(C)C)CC4C5(C)CCC(O)C(C)(C)C5CCC43C)C2C1 [Compound 19g, 3β-hydroxy-12β-(4′-(((cyclopentyloxy)carbonyl)amide)-5′-(tert-butoxy)-L-glutamate)oxy-13H-olean-28-oic acid] | 720 ± 180 nM
10 | CC1(C)CCC2(C(=O)O)CCC3(C)C(C(OC(=O)CCC(NC(=O)Oc4ccccc4)C(=O)OC(C)(C)C)CC4C5(C)CCC(O)C(C)(C)C5CCC43C)C2C1 [Compound 19h, 3β-hydroxy-12β-(4′-((phenoxycarbonyl)amide)-5′-(tert-butoxy)-L-glutamate)oxy-13H-olean-28-oic acid] | 2220 nM and 2180 nM
11 | CC1(C)CC[C@]2(C(=O)O)CC[C@]3(C)[C@H]([C@H](OC(=O)CC[C@H](NC(=O)OC(C)(C)C)C(=O)O)CC4[C@@]5(C)CC[C@H](O)C(C)(C)C5CC[C@]43C)[C@@H]2C1 (stereo partly drawn) [Compound 11b, 3-hydroxy-12β-((S)-4′-((tert-butoxycarbonyl)amino)-4′-carboxybutanoyl)oxy-13H-olean-28-oic acid] | 7650 ± 350 nM
12 | CC1(C)CCC2(C(=O)O)CCC3(C)C(C(OC(=O)CCC(NC(=O)OC(C)(C)C)C(=O)OC4CCCC4)CC4C5(C)CCC(O)C(C)(C)C5CCC43C)C2C1 [Compound 20g, 3β-hydroxy-12β-(4′-((tert-butoxycarbonyl)amide)-5′-cyclopentyloxy-L-glutamate)oxy-13H-olean-28-oic acid] | 820 ± 110 nM
13 | CCOC(=O)NC(CCC(=O)OC1CC2C3(C)CCC(O)C(C)(C)C3CCC2(C)C2(C)CCC3(C(=O)O)CCC(C)(C)CC3C12)C(=O)OC(C)(C)C [Compound 19b, 3β-hydroxy-12β-(4′-((ethoxycarbonyl)amide)-5′-(tert-butoxy)-L-glutamate)oxy-13H-olean-28-oic acid] | 570 ± 360 nM
14 | CCC(C)OC(=O)NC(CCC(=O)OC1CC2C3(C)CCC(O)C(C)(C)C3CCC2(C)C2(C)CCC3(C(=O)O)CCC(C)(C)CC3C12)C(=O)OC(C)(C)C [Compound 19f, 3β-hydroxy-12β-(4′-((sec-butoxycarbonyl)amide)-5′-(tert-butoxy)-L-glutamate)oxy-13H-olean-28-oic acid] | 600 ± 40 nM
15 | CC1(C)CC[C@]2(C(=O)O)CC[C@]3(C)[C@H]([C@H](OC(=O)[C@@H](CCC(=O)OC(C)(C)C)NC(=O)OC(C)(C)C)CC4[C@@]5(C)CC[C@H](O)C(C)(C)C5CC[C@]43C)[C@@H]2C1 (stereo partly drawn) [Compound 10d, 3-hydroxy-12β-(2′-((tert-butoxycarbonyl)amino)-5′-(tert-butoxy)-D-glutamate)oxy-13H-olean-28-oic acid] | 3670 ± 390 nM
16 | CC1(C)CC[C@]2(C(=O)O)CC[C@]3(C)[C@H]([C@H](OC(=O)CC[C@@H](NC(=O)OC(C)(C)C)C(=O)OC(C)(C)C)CC4[C@@]5(C)CC[C@H](O)C(C)(C)C5CC[C@]43C)[C@@H]2C1 (stereo partly drawn) [Compound 10a, 3-hydroxy-12β-(4′-((tert-butoxycarbonyl)amino)-5′-(tert-butoxy)-D-glutamate)oxy-13H-olean-28-oic acid] | 1950 ± 270 nM
17 | CCCOC(=O)NC(CCC(=O)OC1CC2C3(C)CCC(O)C(C)(C)C3CCC2(C)C2(C)CCC3(C(=O)O)CCC(C)(C)CC3C12)C(=O)OC(C)(C)C [Compound 19c, 3β-hydroxy-12β-(4′-((propoxycarbonyl)amide)-5′-(tert-butoxy)-L-glutamate)oxy-13H-olean-28-oic acid] | 400 to 500 nM and 450 nM
18 | COC(=O)NC(CCC(=O)OC1CC2C3(C)CCC(O)C(C)(C)C3CCC2(C)C2(C)CCC3(C(=O)O)CCC(C)(C)CC3C12)C(=O)OC(C)(C)C [Compound 19a, 3β-hydroxy-12β-(4′-((methoxycarbonyl)amide)-5′-(tert-butoxy)-L-glutamate)oxy-13H-olean-28-oic acid] | 550 ± 220 nM
19 | CC1(C)CC[C@]2(C(=O)O)CC[C@]3(C)[C@H]([C@H](OC(=O)CC[C@H](N)C(=O)OC(C)(C)C)CC4[C@@]5(C)CC[C@H](O)C(C)(C)C5CC[C@]43C)[C@@H]2C1 (stereo partly drawn) [Compound 11a, 3-hydroxy-12β-((S)-4′-amino-5′-(tert-butoxy)-5-oxopentanoyl)oxy-13H-olean-28-oic acid] | 2950 ± 680 nM
20 | CC(C)COC(=O)C(CCC(=O)OC1CC2C3(C)CCC(O)C(C)(C)C3CCC2(C)C2(C)CCC3(C(=O)O)CCC(C)(C)CC3C12)NC(=O)OC(C)(C)C [Compound 20e, 3β-hydroxy-12β-(4′-((tert-butoxycarbonyl)amide)-5′-isobutoxy-L-glutamate)oxy-13H-olean-28-oic acid] | 1000 ± 170 nM
